The results in this text go back to US8008260B2, “Methods of protecting against apoptosis using lipopeptides” (Cleveland Clinic Foundation, priority 2005, dated 2011).

The test system of series [1] is ICR mice. Kind of series: NOAEL determination, i.p. injection of increasing doses, two-week observation. The format is in vivo. The method, then:
The dose of NOAEL (No Obvious Adverse Effects Level) was determined by injecting intraperitoneally (i.p) ICR mice with the increasing doses of CBLB601 (0.3, 1, 3, 10, 30, 60, 100 μg/mouse). Control mice were injected with PBS. […] During the first week they were weighed daily. […] Thus, NOAEL for CBLB601 was determined to be 30 μg/mouse.

In series [2] the target is T1, TLR2/TLR6 heterodimer (Homo sapiens, UniProt O60603+Q9Y2C9).
T1 construct: expressed in transfected cells; host or cells: 293 cells
T1 sequence (O60603 21-784): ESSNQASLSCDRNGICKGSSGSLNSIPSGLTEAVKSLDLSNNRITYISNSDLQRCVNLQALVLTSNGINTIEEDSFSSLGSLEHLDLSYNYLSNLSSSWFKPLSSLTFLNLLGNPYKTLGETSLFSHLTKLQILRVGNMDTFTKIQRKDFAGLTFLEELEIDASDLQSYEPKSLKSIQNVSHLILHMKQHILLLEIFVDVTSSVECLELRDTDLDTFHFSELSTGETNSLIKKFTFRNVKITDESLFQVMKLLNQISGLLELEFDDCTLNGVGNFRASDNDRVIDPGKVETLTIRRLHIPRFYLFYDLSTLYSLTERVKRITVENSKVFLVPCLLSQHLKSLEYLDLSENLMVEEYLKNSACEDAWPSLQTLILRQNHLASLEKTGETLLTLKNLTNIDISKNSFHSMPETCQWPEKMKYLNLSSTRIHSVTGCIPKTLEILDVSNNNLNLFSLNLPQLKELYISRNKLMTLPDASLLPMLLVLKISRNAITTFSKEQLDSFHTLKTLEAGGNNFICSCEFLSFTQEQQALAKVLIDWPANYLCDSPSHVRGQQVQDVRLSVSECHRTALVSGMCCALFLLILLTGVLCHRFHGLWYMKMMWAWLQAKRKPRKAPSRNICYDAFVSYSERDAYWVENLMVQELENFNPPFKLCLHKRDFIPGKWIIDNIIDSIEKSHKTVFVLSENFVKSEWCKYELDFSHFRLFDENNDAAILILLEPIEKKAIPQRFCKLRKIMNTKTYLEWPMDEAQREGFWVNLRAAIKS
T1 sequence (Q9Y2C9 32-796): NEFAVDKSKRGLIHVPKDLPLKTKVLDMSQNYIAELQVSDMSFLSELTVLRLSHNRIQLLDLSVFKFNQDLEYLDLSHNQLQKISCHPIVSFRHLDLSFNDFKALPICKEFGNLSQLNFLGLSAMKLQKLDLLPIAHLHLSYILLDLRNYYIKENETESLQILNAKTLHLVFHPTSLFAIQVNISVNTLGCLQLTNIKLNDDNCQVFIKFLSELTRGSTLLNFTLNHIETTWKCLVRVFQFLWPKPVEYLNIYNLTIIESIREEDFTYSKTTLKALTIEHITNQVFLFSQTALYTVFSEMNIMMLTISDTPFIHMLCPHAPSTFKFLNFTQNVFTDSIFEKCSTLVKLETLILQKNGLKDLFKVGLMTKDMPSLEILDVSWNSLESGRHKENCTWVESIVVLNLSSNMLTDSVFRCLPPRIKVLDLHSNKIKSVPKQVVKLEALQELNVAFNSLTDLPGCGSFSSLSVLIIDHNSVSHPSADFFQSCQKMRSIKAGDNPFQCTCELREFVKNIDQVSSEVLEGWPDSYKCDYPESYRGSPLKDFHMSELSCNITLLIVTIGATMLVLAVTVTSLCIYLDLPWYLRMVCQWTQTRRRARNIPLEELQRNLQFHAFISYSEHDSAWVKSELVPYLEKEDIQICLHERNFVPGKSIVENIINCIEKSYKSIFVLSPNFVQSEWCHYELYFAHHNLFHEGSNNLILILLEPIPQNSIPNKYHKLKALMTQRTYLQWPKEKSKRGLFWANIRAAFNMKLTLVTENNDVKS
The series is described as follows: NF-κB-dependent reporter activity in 293 cells expressing the TLR2/TLR6 heterodimer. The format is cell-based. Also on record: NF-κB activation: scale not given here. The note with it: in vitro activity, 293 cells expressing TLR2/TLR6. The procedure:
NF-κB-dependent reporter activity was measured in 293 cells that expressed the TLR2/YLR6 heterodimer. […] None of the non-palmitoylated corresponding peptides activated the NF-κB reporter (FIG. 18B). The peptide component of CBLB617 has a (−4) charge, which should prevent it from interacting with negatively charged cell surface markers. […] Table 5 summarizes the in vitro activity and solubility of all the compounds.

A short description of series [3]: Solubility of the lipopeptides.
Series [4] deals with ICR mice. The series is described as follows: Radiation LD50/30 and dose modification factor (DMF30). The format is in vivo. The method, then: To determine DMF (dose modification factor), 3 μg of CBLB601/mouse was injected i.m. 24 hr prior to irradiation and control mice were injected with PBS. Both drug-injected and control groups received a single dose of TBI covering the dose range that leads to 10-90% mortality within the chosen time intervals (7 days for the gastrointestinal syndrome mortality, and 30 days for the hematopoietic syndrome mortality). The percent mortality-radiation dose graphs were built and LD50/7 and LD50/30 (LD50 at 7 days and 30 days, respectively) were calculated using probit or logit statistical analysis. DMF (also known as dose reduction factor, DRF) was calculated as a ratio of radiation LD50 for CBLB601-treated groups and radiation LD50 for vehicle-treated groups of mice for the chosen survival time point, 7 or 30 days. To calculate DMF30, which is the DMF at day 30 post-irradiation, the radiation LD50/30 values for mice treated with PBS or 3 μg of CBLB601 was determined. For this, PBS-injected groups were irradiated with doses of 6, 6.5, 7, and 7.7 Gy of TBI, and CBLB601-injected groups were irradiated with doses of 10, 10.5, 11, 11.5, and 12 Gy of TBI. […] However, inconsistency in the response to some radiation doses (7 Gy appeared non-toxic whereas 6.5 Gy caused 60% lethality at 30 days) in the control mice precluded an accurate calculation of the DMF30 for CBLB601. Nevertheless, it was expected that the LD50/30 for ICR mice was around 7 Gy [an average for the majority of mouse strains; Monobe et al., Radiother Oncology 73 Suppl 2: S12709, 2004)]. Thus, the value of DMF30 for CBLB601 was estimated roughly as ˜1.6.

Series [5] has as its system NIH Swiss mice. The series is described as follows: Protection from lethal total body gamma radiation, lipopeptides s.c. 30 minutes prior. The following applies: for survival post-treatment: <0.1 MTD. In kind it is in vivo. The procedure: Lipopeptides are potent activators of NF-κB and, as such, may act as inhibitors of apoptotic death. To determine whether lipopeptides function as radioprotectants, various lipopeptides were initially tested to determine the maximal tolerable dose (MTD). Various lipopeptides were then tested to measure their protective effect in NIH Swiss mice to lethal hematopoietic or nd gastrointestinal syndromes after exposure to 10 Gy or 13-15 Gy of total body gamma radiation, respectively. Lipopeptides (0.3-10 μg/mouse) were administered subcutaneously 30 minutes prior to irradiation.
The results of a representative experiment using R-PAM2C-SKKKK (SEQ ID NO: 8) (hereafter, this compound is called, CBLB601) at <0.1 MTD are shown in FIG. 3. As expected, control mice irradiated with 10 Gy died between 11 and 15 days post-treatment, while all animals that received CBLB601 lived beyond 35 days post-treatment. Similarly, control mice irradiated with 13 Gy died between 6 and 10 days post-treatment, while all but one animal that received CBLB601 lived beyond 35 days post-treatment. The radioprotective ability of CBLB601 was further analyzed by measuring the effect of radiation on spleen size.

Series [6] deals with ICR mice. Kind of series: Immune status of mice rescued from TBI (spleen and thymus weight, histology, flagellin immunization). In kind it is in vivo. The procedure:
To check the status of their immune systems, ICR mice were exposed to lethal (10 Gy) or non-lethal (6 Gy) doses of TBI 24 hr after they had been injected (i.m.) with 3 μg CBLB601/mouse or PBS. Groups of five mice from each condition were sacrificed very three days and their spleens and thymuses were removed and weighed. The weights of the spleens were normalized to the body weights of the corresponding animals and the results are presented in FIG. 15. PBS-treated mice that were exposed to 6 Gy of radiation took about 13-14 days to restore their spleens to normal weights, whereas CBLB601-treated mice exposed to 6 Gy of radiation had normal spleen weights by day 8. […] It took a longer period of time (˜30 days) to restore the thymuses to normal weights (not shown).
The spleens and thymuses from control and CBLB601-injected mice were examined microscopically for morphological changes at 3, 10 and 30 days after irradiation. […] There was no evidence of recovery of the splenic white pulp depletion in either group at day 10. Regenerative lymphoid hyperplasia in the thymus was evident in both groups at day 10, with the regeneration slightly more advanced in the control that in the CBLB601-treated mice.
To test the immune response of mice rescued from a lethal dose of gamma-irradiation (10 Gy of TBI) by CBLB601, several groups of such mice were subjected to immunization with a strong antigen, Salmonella flagellin. The mice were first immunized at 8, 18, or 20 weeks after irradiation, at which time they were 18, 25, and 33 weeks of age, respectively. Non-irradiated naïve mice at 29 weeks of age were used as a positive control for the immune response. The mice received a boost of flagellin one week after the first immunization, and another boost three weeks after the 2nd boost; anti-flagellin antibody titers were measured in mouse serum. To test the secondary immune response, the mice were bled again a month later to insure reduction of the antibody titers. This was followed by a 3rd boost of the antigen injection and measurement of anti-flagellin antibodies titers 10 days later. At the time of the 3rd boost, the irradiation mice were 38, 30, and 23 weeks old, and the control mice were 34 weeks old.

[7] abbreviates: 3 μg/mouse i.m. 24 hr prior to irradiation, ProBit analysis.

Peptide text beside a SMILES is read from it. * marks the point of attachment. Propyl(2R-PamO,3-PamO) = CCCCCCCCCCCCCCCC(=O)OC[C@H](C*)OC(=O)CCCCCCCCCCCCCCC

`CCCCCCCCCCCCCCCC(=O)OC[C@H](CSC[C@H](N)C(=O)N[C@@H](CO)C(=O)N[C@@H](CCCCN)C(=O)N[C@@H](CCCCN)C(=O)N[C@@H](CCCCN)C(=O)N[C@@H](CCCCN)C(=O)O)OC(=O)CCCCCCCCCCCCCCC` [CBLB601, R-PAM2C-SKKKK] (H-C(Propyl(2R-PamO,3-PamO))SKKKK-OH): the “differences between treated and control mice” value in series [1] (30 μg dose i.p.) was “no noticeable differences”. In addition, the morbidity result in series [1] (60 μg dose i.p., around 3-4 days after treatment) is “signs of morbidity, such as slow motion and scruffy fur”. In series [1] (100 μg/mouse i.p., 1-2 days post-treatment), the mortality result was “Mortality was observed”. Also, in series [1] (0.3-100 μg/mouse i.p., weighed daily in first week), the “body weight versus control mice” value is reported as “no differences in weight”. The “NOAEL (No Obvious Adverse Effects Level)” value in series [1] (i.p., ICR mice) is 30 μg/mouse. Also, the NF-κB activation in series [2] amounted to 100. Also, the Solubility entry in series [3] is “Excellent”. In addition, in series [4] (setting [7]), the “radiation LD50/30, average” value is around 11.32 Gy and the “radiation LD50/30, range” value is given as 11.07-11.61 Gy. In series [4] (3 μg/mouse i.m. 24 hr prior, control LD50/30 taken as around 7 Gy from literature), the “DMF30 (dose modification factor at day 30)” value was around 1.6. In series [5] (10 Gy, all animals), the survival post-treatment is recorded as above 35 days. In addition, the “effect of radiation on spleen size” value in series [5] (13 Gy total body gamma irradiation (FIG. 4)) is “significantly less reduction in the size of the spleen”. For the same molecule, the survival post-treatment in series [5] (13 Gy, all but one animal) was above 35 days. Moreover, in series [5] (data not shown), the “protection of the thymus from radiation” value was “protected the thymus from radiation”. Besides, the “time to restore the thymuses to normal weights” value in series [6] (3 μg/mouse i.m. 24 hr before TBI, not shown) was around 30 days. For the same molecule, the “day by which spleen weights were normal” value in series [6] (6 Gy TBI, 3 μg/mouse i.m. 24 hr before) was at most 8 days. For the same molecule, in series [6] (10 Gy TBI, 3 μg/mouse i.m. 24 hr before), the “day by which spleen weights were completely restored” value fell in the range of 13 to 14 days. Besides, the “spleen histology, extramedullary hematopoiesis” value in series [6] (10 days post-irradiation, 10 Gy) was “mild to moderate multifocal extramedullary hematopoiesis (EMH)”. Moreover, in series [6] (mice rescued from 10 Gy TBI, immunized 8, 18 or 20 weeks after irradiation), the “humoral immune response against flagellin” value is given as “robust humoral immune response against flagellin that was indistinguishable from that of the naïve control mice”.
